Here are results for 3 molecules from patent publication US4147778A, “Antibiotic baumycin complex and components thereof” (Zaidan Hojin Biseibutsu Kagaku Kenkyu Kai, priority 1976, dated 1979).

Values after ≈ are worked out from the molar mass of the structure shown. “Also recorded” adds a separate entry of the source. Like-named read-outs stand apart in the source and are kept apart here.

One data set deals with mouse L-1210 leukemia. The data set is described as follows: Prolongation of survival time of mice inoculated with L-1210 leukemia. Format: in vivo, BDF1 mice. The conditions noted are these: for Prolongation of the survival time T/C: BDF1 mice, 1 × 10^6 L-1210 cells i.p., day 30; for Inhibitory effect on mouse L-1210 leukemia: in words. From the text: (§1) For example, BDF1 mice were inoculated intraperitoneally with 1 × 10^6 L-1210 cells/mouse and 24 hrs. after inoculation the drug was intraperitoneally injected once daily for 10 days consecutively. On day 30, the % of prolongation of the survival time to control was as follows: […]

A short description of data set [1]: Toxicity in experimental animal tests. In kind it is in vivo.
A short description of a further data set: Solubility. Format: physicochemical.
For a further data set, the system named is B. subtilis ATCC 6633. Nature of the data set: Minimum inhibitory concentration, broth dilution method. Format: cell-based. From the text:
(§2) The minimum inhibitory concentration of the present antibiotics as determined by the broth dilution method are shown in Table 1.
In general terms: Broth dilution looks for growth in wells or tubes with falling amounts of substance.

For another data set, the system named is Candida tropicalis. The data set is described as above. In kind it is cell-based.
Excerpt: as §2

The test system of data set [2] is Mycobacterium smegmatis ATCC 607. The description is as above. In kind it is cell-based.
Excerpt: as §2

In another data set the test system is Staph. aureus FDA209P. The description is as above. Format: cell-based.
Excerpt: as §2

In another data set the test system is Proteus morganii. Described as above. Format: cell-based.
Excerpt: as §2

For data set [3], the system named is Ps. fluorescens NIHJB-254. Described as above. Format: cell-based.
Excerpt: as §2

The subject of the next data set is Staph. aureus Smith. The data set is described as above. In kind it is cell-based.
Excerpt: as §2

For data set [4], the system named is Candida albicans IAM 4905. The description is as above. Format: cell-based.
Excerpt: as §2

A further data set deals with Sarcina lutea ATCC 9341. The description is as above. In kind it is cell-based.
Excerpt: as §2

For the next data set, the system named is Coryne. bovis 1810. The data set is described as above. In kind it is cell-based.
Excerpt: as §2

The subject of a further data set is B. cereus ATCC 9634. The data set is described as above. In kind it is cell-based.
Excerpt: as §2

The subject of data set [5] is B. megarterium NRRL B-938. The description is as above. In kind it is cell-based.
Excerpt: as §2

The subject of another data set is Micrococcus flavs. The description is as above. Format: cell-based. The conditions noted are these: Micrococcus flavs.
Excerpt: as §2

Data set [6] is described as follows: Acute toxicity, LD50 upon intraperitoneal injection. Format: in vivo. From the text:
The LD50 values upon intraperitoneal injection of the
antibiotics of the present invention are shown in the […]

For a further data set, the system named is animal tumors. Nature of the data set: Inhibition of growth of animal tumors. Format: in vivo. To be noted: experimental animal tests.
Excerpt: as §1

Another data set deals with gram-positive bacteria. The data set is described as follows: Antimicrobial activity against gram-positive bacteria. In kind it is cell-based.
Excerpt: as §2

In a further data set the test system is animal tumor systems. To be noted: reported in J. Antibiotics 27:254-259 (1974) and others; cited from earlier work.
The mark [7] stands for this setting: 1 mg./kg./day i.p. once daily for 10 days.
Where [8] appears, read: 2 mg./kg./day i.p. once daily for 10 days.
Setting [9] is: 4 mg./kg./day i.p. once daily for 10 days.
[10] abbreviates: 6 mg./kg./day i.p. once daily for 10 days.
[11] abbreviates: 8 mg./kg./day i.p. once daily for 10 days.
Where [12] appears, read: in acidic water, methyl cellosolve, methanol, ethanol, n-propanol and n-butanol.
[13] abbreviates: in ethyl acetate, acetone, methylene chloride, chloroform, carbon tetrachloride, benzene, toluene, ethyl ether and n-hexane.

What is called LD50 is the dose expected to kill half of the subjects tested. Consider `COc1cccc2c1C(=O)c1c(O)c3c(c(O)c1C2=O)CC(O)(C(C)=O)CC3OC1CC(N)C(OC(CC(C)O)OC(C)C(=O)O)C(C)O1` (centres unmarked) [BM-B1], for which the “Prolongation of the survival time T/C” value with mouse L-1210 leukemia (0.125 mg./kg./day i.p. once daily for 10 days) worked out at 93%; in the data set on mouse L-1210 leukemia (0.25 mg./kg./day i.p. once daily for 10 days) it was 99%; in the data set with mouse L-1210 leukemia (0.5 mg./kg./day i.p. once daily for 10 days), 99%; in the data set on mouse L-1210 leukemia (setting [7]) it was 105%; in the data set with mouse L-1210 leukemia (setting [8]) it was 117%; with mouse L-1210 leukemia (setting [9]) it was 136%. Further, the results for the “Prolongation of the survival time T/C” value in the data set on mouse L-1210 leukemia (setting [10]) and in the data set with mouse L-1210 leukemia (setting [11]) were 165% and 147%, respectively. The “Inhibitory effect on mouse L-1210 leukemia” value in the data set with mouse L-1210 leukemia is on record as “marked inhibitory effects”. Besides, the Toxicity entry in data set [1] is “low toxicity”. The Solubility result in the data set “Solubility” (setting [12]) is recorded as “Soluble”; in the data set “Solubility” (setting [13]), “Insoluble”; in the data set “Solubility” (in water, listed as Baumycin B1), “Insoluble”. The MIC against B. subtilis ATCC 6633 (Bacillus subtilis, ATCC6633, B. subtilis ATCC 6633) was 100 µg/mL (≈ 145 µM); against Candida tropicalis it was 100 µg/mL (≈ 145 µM); in data set [2] (Mycolicibacterium smegmatis, ATCC607, Mycobacterium smegmatis ATCC 607), 100 µg/mL (≈ 145 µM); against Staph. aureus FDA209P (Staphylococcus aureus, FDA209P) it was 50 µg/mL (≈ 72.7 µM); in the data set with Proteus morganii (Morganella morganii), above 100 µg/mL; in data set [3] (Pseudomonas fluorescens, NIHJB254, Ps. fluorescens NIHJB-254), 100 µg/mL (≈ 145 µM). For the same molecule, the MIC in the data set with Staph. aureus Smith (Staphylococcus aureus) is 50 µg/mL (≈ 72.7 µM); in [4] (Candida albicans, IAM4905, Candida albicans IAM 4905), 100 µg/mL (≈ 145 µM); with Sarcina lutea ATCC 9341 (Micrococcus luteus, ATCC9341, Sarcina lutea ATCC 9341), 50 µg/mL (≈ 72.7 µM); with Coryne. bovis 1810 (Corynebacterium bovis), 50 µg/mL (≈ 72.7 µM); against B. cereus ATCC 9634 (Bacillus cereus, ATCC9634, B. cereus ATCC 9634), 100 µg/mL (≈ 145 µM); in data set [5], 100 µg/mL (≈ 145 µM). Moreover, the MIC in the data set on Micrococcus flavs (read-out: Minimum inhibitory concentration) was 50 µg/mL (≈ 72.7 µM). For the same molecule, in [6] (in vivo, ip, read-out: LD50), the LD50 lay within 40 to 60 mg/kg. For the same molecule, the “Inhibition of growth of animal tumors / antitumor activity” value in the data set with animal tumors (listed as Baumycin B1) is “inhibit the growth of various animal tumors; also recorded: marked antitumor activity; also recorded: marked inhibitory action against animal malignant tumors, especially ascitic and solid tumors”. Further, the Antimicrobial activity result with gram-positive bacteria (listed as Baumycin B1) is given as “inhibit the growth of gram-positive bacteria; also recorded: possess antimicrobial activity, especially against gram-positive bacteria”.

For `COc1cccc2c1C(=O)c1c(O)c3c(c(O)c1C2=O)CC(O)(C(C)=O)CC3OC1CC(N)C(OC(CC(C)O)OC(C)C(=O)O)C(C)O1` (centres unmarked) [BM-B2], the “Prolongation of the survival time T/C” value in the data set on mouse L-1210 leukemia (setting [7]) turned out to be 99%; in the data set on mouse L-1210 leukemia (setting [8]), 99%; in the data set on mouse L-1210 leukemia (setting [9]) it was 111%; in the data set on mouse L-1210 leukemia (setting [10]), 135%; in the data set on mouse L-1210 leukemia (setting [11]), 155%. The “Inhibitory effect on mouse L-1210 leukemia” value in the data set with mouse L-1210 leukemia is given as “marked inhibitory effects”. For the same molecule, the Toxicity result in data set [1] is “low toxicity”. Besides, the Solubility entry is “Soluble” in “Solubility” (setting [12]); “Insoluble” in the data set “Solubility” (setting [13]); “soluble” in the data set “Solubility” (in water, listed as Baumycin B2). For the same molecule, the Minimum inhibitory concentration is above 100 µg/mL in the data set with B. subtilis ATCC 6633 (B. subtilis ATCC 6633); above 100 µg/mL in the data set with Candida tropicalis; above 100 µg/mL in data set [2] (Mycobacterium smegmatis ATCC 607); 100 µg/mL (≈ 145 µM) in the data set on Staph. aureus FDA209P; above 100 µg/mL in the data set with Proteus morganii; above 100 µg/mL in [3] (Ps. fluorescens NIHJB-254). Besides, the Minimum inhibitory concentration is 50 µg/mL (≈ 72.7 µM) in the data set on Staph. aureus Smith; above 100 µg/mL in [4] (Candida albicans IAM 4905); 25 µg/mL (≈ 36.4 µM) in the data set with Sarcina lutea ATCC 9341 (Sarcina lutea ATCC 9341); 50 µg/mL (≈ 72.7 µM) in the data set on Coryne. bovis 1810; above 100 µg/mL in the data set on B. cereus ATCC 9634 (B. cereus ATCC 9634); above 100 µg/mL in data set [5]. The Minimum inhibitory concentration in the data set on Micrococcus flavs came out at 50 µg/mL (≈ 72.7 µM). This molecule had an LD50 in data set [6] of 75 to 100 mg/kg. For the same molecule, the “Inhibition of growth of animal tumors / antitumor activity” value in the data set on animal tumors (listed as Baumycin B2) was “inhibit the growth of various animal tumors; also recorded: marked antitumor activity; also recorded: marked inhibitory action against animal malignant tumors, especially ascitic and solid tumors”. Moreover, in the data set on gram-positive bacteria (listed as Baumycin B2), the Antimicrobial activity entry is given as “inhibit the growth of gram-positive bacteria; also recorded: possess antimicrobial activity, especially against gram-positive bacteria”.

For `CC(=O)[C@]1(O)Cc2c(O)c3c(c(O)c2[C@@H](O[C@H]2C[C@H](N)[C@H](O)[C@H](C)O2)C1)C(=O)c1c(O)cccc1C3=O` [carminomycin], the “Activity in animal tumor systems” value in the data set on animal tumor systems is on record as “active in several animal tumor systems”.
